In ChEMBL document CHEMBL1201862, “PubChem BioAssay data set” (2004):
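48-hour exposure; five concentrations; linearly interpolated endpoints. The concentration for 50% growth inhibition is given as GI50.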 Activity calls are given as the source filed them. Rule as the data show it: active = GI50 up to about 1.1 µM and inactive = higher.

What was measured:
Assay in all cases: growth of human tumour cells (NCI), 48 h
[1] = tested on: BT-549
[2] = tested on: DLD-1
[3] = tested on: DMS-114
[4] = tested on: HOP-18
[5] = tested on: LXFL 529
[6] = tested on: M19-MEL
[7] = tested on: SNB-78
[8] = tested on: XF498

With `O=C(/C=C/c1ccc(OCc2ccccc2)cc1)NCc1ccc(C(=O)NCc2ccccc2)cc1` the GI50 [1] was > 100 µM (inactive).
`CC(O)CCC(=O)c1ccoc1` (centres undefined) was tested, and the GI50 [1] was 2920 µM (inactive), the GI50 [2] was 7960 µM (inactive) and the GI50 [3] was 2610 µM (inactive). The GI50 [4] was 5150 µM (inactive), the GI50 [5] was > 1000 µM (inactive) and the GI50 [6] was 5480 µM (inactive). The GI50 [7] was 5500 µM (inactive).
With `O=C(O)C1CC(c2ccccc2)=NN1c1ccccc1` (centres undefined) the GI50 [1] was 66.5 µM (inactive).
In the case of `CCOC(=O)C1S/C(=N\c2cccc(Cl)c2C)N=C1C` (centres undefined), the GI50 [2] is reported as > 10 µM (inactive), the GI50 [3] is reported as 30.4 µM (inactive) and the GI50 [4] is reported as 28.7 µM (inactive). For the same compound, the GI50 [5] was > 10 µM (inactive), the GI50 [6] was 26.9 µM (inactive) and the GI50 [7] was 33 µM (inactive). For the same compound, the GI50 [8] was 19.7 µM (inactive).
With `CC(C)(C)c1cc(OCc2nnc3sc(Cc4ccccc4)nn23)c(Cl)cc1OCc1nnc2sc(Cc3ccccc3)nn12` the GI50 [1] was 21.5 µM (inactive).
In the case of `O=C(c1c(F)c(F)c(F)c(F)c1F)c1c(F)c(F)c(F)c(F)c1F`, the GI50 [1] is reported as 2.46 µM (inactive).
In the case of `CCc1nnc(S)n1/N=C/c1ccc(-c2ccc([N+](=O)[O-])cc2)o1`, the GI50 [2] is reported as > 100 µM (inactive), the GI50 [5] is reported as > 100 µM (inactive) and the GI50 [6] is reported as > 100 µM (inactive). The GI50 [7] was > 100 µM (inactive) and the GI50 [8] was > 100 µM (inactive).
With `COc1ccc(/C(=N\NC(=S)NN)C(c2ccc(OC)cc2)C2C(=O)Oc3ccccc32)cc1` (centres undefined) the GI50 [2] was > 10 µM (inactive), the GI50 [3] was 14.8 µM (inactive) and the GI50 [4] was 7.18 µM (inactive). For the same compound, the GI50 [5] was 72.4 µM (inactive), the GI50 [6] was > 10 µM (inactive) and the GI50 [7] was > 10 µM (inactive). For the same compound, the GI50 [8] was > 10 µM (inactive).
`COC(=O)[C@@H](Cc1ccccc1)N1O[C@]12CCCC[C@@H]2NC(=O)OC(C)(C)C` (some centres undefined) was tested, and the GI50 [1] was 18.1 µM (inactive).
In the case of `COc1ccc(/C=C2\N/C(=N\N=C/C(O)C(O)C(O)C(O)CO)NC2=O)cc1` (centres undefined), the GI50 [1] is reported as 24.6 µM (inactive).
For `O=c1cc(-c2ccccc2)oc2cc(OCC(O)COc3ccc4c(=O)cc(-c5ccccc5)oc4c3)ccc12`, the GI50 [2] was > 100 µM (inactive), the GI50 [3] was > 100 µM (inactive) and the GI50 [4] was > 100 µM (inactive). The GI50 [5] was 40 µM (inactive), the GI50 [6] was 56.4 µM (inactive) and the GI50 [7] was 13.6 µM (inactive). The GI50 [8] was 23.4 µM (inactive).
For `c1ccc(C(=NNc2nc3ccccc3o2)c2ccccn2)nc1`, the GI50 [1] was 0.0908 µM (active).
In the case of `CCCCSC1CCSc2c1ccc1ccccc21` (centres undefined), the GI50 [2] is reported as 78.9 µM (inactive), the GI50 [3] is reported as > 100 µM (inactive) and the GI50 [4] is reported as > 100 µM (inactive). The GI50 [6] was > 100 µM (inactive), the GI50 [7] was > 100 µM (inactive) and the GI50 [8] was 0.119 µM (active).
`Cc1c(S(=O)(=O)O)ccc(/N=N/c2c(O)c(C(=O)O)cc3ccccc23)c1Cl` was tested, and the GI50 [1] was > 100 µM (inactive).
With `Cc1ccc2c(c1)C/C(=C\c1ccccc1C(=O)O)C2=O` the GI50 [1] was > 100 µM (inactive).
In the case of `COC(=O)C1=C(C(=O)OC)C2(C)Nc3ccccc3C2=C(c2ccccc2)C1` (centres undefined), the GI50 [2] is reported as 30.4 µM (inactive), the GI50 [3] is reported as 18.3 µM (inactive) and the GI50 [5] is reported as 15.1 µM (inactive). The GI50 [6] was 24.2 µM (inactive), the GI50 [7] was 19 µM (inactive) and the GI50 [8] was 12.7 µM (inactive).
With `CC(=O)O[C@H]1C[C@H]2[C@@H](OC(C)=O)/C=C3\C[C@](C)(C(=O)[C@H](O)C(=C1C)C2(C)C)[C@@H](O)C[C@@H]3OC(=O)[C@H](O)[C@H](c1ccccc1)N(C)C` the GI50 [1] was > 100 µM (inactive).
In the case of `Clc1ccc(Nc2nc(Cl)c3nc[nH]c3n2)cc1Cl`, the GI50 [1] is reported as 15.6 µM (inactive).
`COC(=O)[C@H](Cc1ccccc1)NC(=O)N(CCNC(=O)OC(C)(C)C)c1ccccc1` was tested, and the GI50 [1] was > 100 µM (inactive).
In the case of `COc1ccc(-c2cc(-c3ccccc3)n(C3OC(COC(C)=O)C(OC(C)=O)C(OC(C)=O)C3OC(C)=O)c(=S)c2C#N)cc1` (centres undefined), the GI50 [1] is reported as 12.4 µM (inactive).
In the case of `CCN(CC)c1cccc2c1/C(=N/O)CCCC2`, the GI50 [3] is reported as 52.8 µM (inactive), the GI50 [4] is reported as > 100 µM (inactive) and the GI50 [5] is reported as > 100 µM (inactive). For the same compound, the GI50 [6] was > 100 µM (inactive), the GI50 [7] was > 100 µM (inactive) and the GI50 [8] was > 100 µM (inactive).
In the case of `O=C1CSC(c2cc3cc(Br)ccc3nc2Cl)N1c1ccc(Cl)cc1` (centres undefined), the GI50 [1] is reported as 26.8 µM (inactive).
With `Clc1ccc(C2NN=C3c4ccccc4OCC32)cc1` (centres undefined) the GI50 [1] was 13.5 µM (inactive).
For `O=c1[nH]c2cc(C(F)(F)F)ccc2nc1CBr`, the GI50 [1] was 13.1 µM (inactive).
`CCC1=C(C)/C(=C/c2[nH]c(C(Br)Br)c(CC)c2C)N=C1C(Br)Br` was tested, and the GI50 [2] was 25.6 µM (inactive), the GI50 [3] was 19 µM (inactive) and the GI50 [4] was 84.9 µM (inactive). For the same compound, the GI50 [5] was 31.9 µM (inactive), the GI50 [6] was 20.9 µM (inactive) and the GI50 [7] was 33.4 µM (inactive).
With `O=C1C=C(N2CCCC2)C(=O)c2c(O)ccc(O)c21` the GI50 [1] was > 10 µM (inactive).
In the case of `FC(F)(F)c1ccccc1C1SCC2=Nc3ccccc3CN21` (centres undefined), the GI50 [1] is reported as 19.3 µM (inactive).
`NNC(=O)CNC(=O)c1ccc(Cl)cc1Cl` was tested, and the GI50 [2] was > 100 µM (inactive), the GI50 [3] was > 100 µM (inactive) and the GI50 [4] was > 100 µM (inactive). For the same compound, the GI50 [5] was > 100 µM (inactive), the GI50 [6] was > 100 µM (inactive) and the GI50 [8] was 91.6 µM (inactive).
For `O=C(Nn1c(-c2ccccc2)nc2ccccc2c1=O)c1ccc(CS)cc1`, the GI50 [1] was 22.4 µM (inactive).
For `Cc1cc(C)nc(/C(=N\NC(N)=O)C(=O)Nc2nc3ccc(C)cc3s2)c1`, the GI50 [2] was > 85.3 µM (inactive), the GI50 [3] was > 48.5 µM (inactive) and the GI50 [4] was > 100 µM (inactive). For the same compound, the GI50 [5] was > 100 µM (inactive), the GI50 [6] was > 100 µM (inactive) and the GI50 [7] was > 100 µM (inactive). For the same compound, the GI50 [8] was > 100 µM (inactive).
